Measurements from patent US12662491B2 (Redona Therapeutics, Inc., priority 2020, dated 2026).
Read-outs that look alike come from different tables or passages of the source.

Target: T1, Zcchc11 enzyme (Homo sapiens, UniProt Q5TAX3)
T1 construct: made in house; host or cells: HEK293 cells (Zcchc11); E. coli Rosetta II (LIN28A)
T1 sequence (Q5TAX3 212-1420): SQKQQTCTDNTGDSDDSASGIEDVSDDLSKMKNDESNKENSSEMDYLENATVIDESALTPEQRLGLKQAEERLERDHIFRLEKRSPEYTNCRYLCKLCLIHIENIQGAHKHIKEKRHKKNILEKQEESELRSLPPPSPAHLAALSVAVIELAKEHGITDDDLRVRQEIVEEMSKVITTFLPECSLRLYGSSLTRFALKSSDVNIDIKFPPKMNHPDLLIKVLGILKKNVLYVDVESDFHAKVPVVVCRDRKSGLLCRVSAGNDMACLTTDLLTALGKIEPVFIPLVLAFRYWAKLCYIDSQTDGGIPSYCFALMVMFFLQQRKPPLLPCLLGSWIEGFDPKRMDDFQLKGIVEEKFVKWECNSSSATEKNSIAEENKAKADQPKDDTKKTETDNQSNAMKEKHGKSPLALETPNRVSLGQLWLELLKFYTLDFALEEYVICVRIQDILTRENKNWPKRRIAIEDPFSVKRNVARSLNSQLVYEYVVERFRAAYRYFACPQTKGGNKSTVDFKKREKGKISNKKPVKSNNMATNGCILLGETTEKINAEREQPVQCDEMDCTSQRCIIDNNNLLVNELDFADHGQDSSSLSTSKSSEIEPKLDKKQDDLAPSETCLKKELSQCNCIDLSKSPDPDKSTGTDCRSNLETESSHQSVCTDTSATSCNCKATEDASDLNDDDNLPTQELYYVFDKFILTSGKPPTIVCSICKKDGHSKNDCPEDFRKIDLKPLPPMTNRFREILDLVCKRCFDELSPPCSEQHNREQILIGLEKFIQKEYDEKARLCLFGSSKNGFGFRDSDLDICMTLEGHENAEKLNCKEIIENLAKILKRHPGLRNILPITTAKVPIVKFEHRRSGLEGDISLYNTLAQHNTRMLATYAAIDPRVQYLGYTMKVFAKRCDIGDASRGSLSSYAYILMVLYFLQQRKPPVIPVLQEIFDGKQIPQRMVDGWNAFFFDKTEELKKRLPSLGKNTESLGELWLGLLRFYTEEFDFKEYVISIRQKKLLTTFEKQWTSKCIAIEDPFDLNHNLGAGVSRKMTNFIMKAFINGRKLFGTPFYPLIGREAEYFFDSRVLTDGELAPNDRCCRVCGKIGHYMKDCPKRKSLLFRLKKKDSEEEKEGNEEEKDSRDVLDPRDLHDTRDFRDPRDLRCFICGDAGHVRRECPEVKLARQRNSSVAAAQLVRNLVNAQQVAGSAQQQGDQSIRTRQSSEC
Test: TUTase assay (Zcchc11 assay, Lin28a-dependent polyuridylation of pre-let-7)
Type: biochemical
Details: read-out: Potency Lin28a-dep Z11 IC50
Description: The purpose of the Zcchc11 assay is to determine compound potency against Zcchc11 enzyme through the measurement of IC50. Compound inhibition is measured as a function of polyuridine tails added to RNA substrates in the presence of active TUTase, UTP, and inhibitor. The Zcchc11 assay was done in a black, non-binding, 384 well plate (Corning #3575). All steps were performed at room temperature. For a typical assay, a 29 ul aliquot of assay buffer (50 mM HEPES pH 7.3, 150 mM KCl, 5 mM MgCl2, 10 mM DTT, 0.01% Triton X-100, 40 U/ml RNAsin (Promega)) containing LIN28A protein (final concentration: 10 nM) is added to each well. Next, 1 ul of compound in 100% DMSO is transferred from a compound dilution plate in which the compound is serially diluted. Next, 10 ul of a 5× mix of Zcchc11 and RNA substrate (5′-fluorescein labeled pre-let-7 miRNA (Dharmacon)) is added (final concentrations: 0.2 nM and 2 nM, respectively). The plate is placed on a plate shaker for 30 seconds to produce mixing, then incubated for 30 minutes. Next, 10 ul of a 5× mix of UTP and the quenching probe (3′-rhodamine labeled A20, polyadenosine nucleotide, (IDT)) is added (final concentrations: 5 uM and 4 nM, respectively). The plate is immediately placed in a Biotek Cytation 5 plate reader, and the time-dependent decrease in fluorescein fluorescence resulting from annealing of the A20 probe to polyuridine tails is recorded, using the kinetics mode of the reader. Reaction rates are obtained using linear fits to the early portion of progress curves. IC50 values are calculated using a four parameter fit with 100% enzyme activity determined from the DMSO control and 0% activity from control samples lacking UTP.
The LIN28A protein was expressed in and purified from E. coli, strain Rosetta II (Novagen). The entire coding sequence of the human, wild-type protein was cloned into expression vector pMAL (NEB), down-stream from a maltose-binding protein tag. The linker sequence contained a TEV protease cleavage site. The protein was purified from bacterial extracts using an MBP-Trap column (GE Healthcare Life Sciences), followed by tag cleavage and removal of the tag by ion-exchange chromatography. When necessary, contaminating bacterial RNA was removed using the procedure describe by Faehnle C R. et al. (2017) Multi-domain utilization by TUT4 and TUT7 in control of let-7 biogenesis. Nat Struct Mol Biol, 24:658-665.
The Zcchc11 protein was expressed in and purified from HEK293 cells. A truncated protein comprising residues 212-1420 of the human sequence was cloned into expression vector pTT5 (Viva Biotech) down-stream from a maltose-binding protein tag. The linker sequence contained a TEV protease cleavage site, and a FLAG tag was added to the carboxyl terminus of the protein. The protein was purified from cell extracts using an MBP-Trap column (GE Healthcare Life Sciences), followed by tag cleavage and further enrichment of the full length construct using anti-FLAG affinity media (Sigma Aldrich).
“+” represents an IC50 value that is greater than 50 μM; “++” represents an IC50 value that is greater than 10 μM and equal to or less than 50 μM; “+++” represents an IC50 value that is greater than 1 μM and equal to or less than 10 μM; and “++++” represents an IC50 value that is equal to or less than 1 μM.

[1] = Lin28a-dependent Zcchc11 (Z11) TUTase activity
[2] = Lin28a-dependent Zcchc11 (Z11) TUTase assay

Row | Structure (SMILES) | IC50 [1] | IC50 [2] | further results
1 | COc1ccc(Cl)c(OC[C@H]2C[C@@H](c3cccnc3)CN2c2cc3c(cc2Cl)c(=O)c(C(=O)O)cn3-c2ccc(N3CC(N(C)C)C3)nc2)n1 [Compound 345, 6-chloro-7-((2R,4S)-2-(((3-chloro-6-methoxy-pyridin-2-yl)oxy)methyl)-4-(pyridin-3-yl)pyrrolidin-1-yl)-1-(6-(3-(dimethyl-amino)azetidin-1-yl)pyridin-3-yl)-4-oxo-1,4-dihydro-quinoline-3-carboxylic acid] | ≤ 1000 nM |  | 
2 | COc1cnc(OC[C@H]2CC3CC3N2c2cc3c(cc2Cl)c(=O)c(C(=O)O)cn3-c2ccc(N)nc2)c(Cl)c1 (stereo partly drawn) [Example 651, 1-(6-aminopyridin-3-yl)-6-chloro-7-((3R)-3-(((3-chloro-5-methoxypyridin-2-yl)oxy)methyl)-2-azabicyclo[3.1.0]hexan-2-yl)-4-oxo-1,4-dihydroquinoline-3-carboxylic acid] |  | ≤ 1000 nM | 
3 | O=C(O)c1cn(-c2ccc(O)cc2F)c2c(F)c(N3CCC[C@@H]3COc3ccccn3)c(F)cc2c1=O [Compound 80, (R)-6,8-difluoro-1-(2-fluoro-4-hydroxy-phenyl)-4-oxo-7-(2-((pyridin-2-yloxy)methyl)pyrrolidin-1-yl)-1,4-dihydro-quinoline-3-carboxylic acid] | 1000 to 10000 nM |  | 
4 | CN(C)C1CN(c2ccc(-n3cc(C(=O)O)c(=O)c4cc(Cl)c(N5CCC[C@@H]5CS(=O)(=O)c5ncccc5Cl)cc43)cn2)C1 [Example 618, (R)-6-chloro-7-(2-(((3-chloropyridin-2-yl)sulfonyl)methyl)pyrrolidin-1-yl)-1-(6-(3-(dimethylamino)azetidin-1-yl)pyridin-3-yl)-4-oxo-1,4-dihydroquinoline-3-carboxylic acid] |  | ≤ 1000 nM | 
5 | Cc1cc2c(=O)c(C(=O)O)cn(-c3ccc(N4CC(N(C)C)C4)nc3)c2cc1N1C(=O)CC1COc1ccccn1 (centres unmarked) [Example 52, 1-(6-(3-(dimethylamino)azetidin-1-yl)pyridin-3-yl)-6-methyl-4-oxo-7-(2-oxo-4-((pyridin-2-yloxy)methyl)azetidin-1-yl)-1,4-dihydroquinoline-3-carboxylic acid] |  |  | IC50 (LIN28A 10 nM, Zcchc11 0.2 nM, 5′-fluorescein pre-let-7 miRNA 2 nM, UTP 5 uM, room temperature, 30 minutes pre-incubation): 10000 to 50000 nM
6 | CN(C)C1CN(c2ccc(-n3cc(C(=O)O)c(=O)c4cc(C#N)c(N5CCC[C@]5(C)COc5ncccc5F)cc43)cn2)C1 [Example 687, (R)-6-cyano-1-(6-(3-(dimethylamino)azetidin-1-yl)pyridin-3-yl)-7-(2-(((3-fluoropyridin-2-yl)oxy)methyl)-2-methylpyrrolidin-1-yl)-4-oxo-1,4-dihydroquinoline-3-carboxylic acid] |  | ≤ 1000 nM | 
7 | CC1(n2cc(C(=O)O)c(=O)c3cc(Cl)c(N4CCC[C@@H]4CN4CCOCC4)cc32)CC1 [Compound 114, (R)-6-chloro-1-(1-methylcyclo-propyl)-7-(2-(morpholino-methyl)pyrrolidin-1-yl)-4-oxo-1,4-dihydro-quinoline-3-carboxylic acid] | > 50000 nM |  | 
8 | COCc1ccccc1-n1cc(C(=O)O)c(=O)c2cc(F)c(N3CCC[C@@H]3COc3ccccn3)cc21 [Example 407, (R)-6-fluoro-1-(2-(methoxymethyl)phenyl)-4-oxo-7-(2-((pyridin-2-yloxy)methyl)pyrrolidin-1-yl)-1,4-dihydroquinoline-3-carboxylic acid] |  | 1000 to 10000 nM | 

Now from value to compound, other results behind:

Row | IC50 [1] | IC50 [2] | Structure (SMILES) | further results
9 | ≤ 1000 nM |  | O=C(O)c1cn(-c2cnn(C3CNC3)c2)c2cc(N3CCC[C@@H]3COc3ncccc3F)c(Cl)cc2c1=O [Compound 246, 1-[1-(azetidin-3-yl)pyrazol-4-yl]-6-chloro-7-[(2R)-2-[[(3-fluoropyridin-2-yl)oxy]methyl]pyrrolidin-1-yl]-4-oxoquinoline-3-carboxylic acid] | 
10 | ≤ 1000 nM |  | CN(C)C1CN(c2ccc(-n3cc(C(=O)O)c(=O)c4cc(Cl)c(N5CC(C6CC6)C[C@@H]5COc5ncccc5Cl)cc43)cn2)C1 (stereo partly drawn) [Compound 349, 6-chloro-7-((2R)-2-(((3-chloropyridin-2-yl)oxy)methyl)-4-cyclopropyl-pyrrolidin-1-yl)-1-(6-(3-(dimethyl-amino)azetidin-1-yl)pyridin-3-yl)-4-oxo-1,4-dihydro-quinoline-3-carboxylic acid] | 
11 |  | ≤ 1000 nM | Cc1cc2c(=O)c(C(=O)O)cn(-c3ccc(N4CC(N(C)C)C4)nc3)c2cc1N1CCC[C@@H]1COc1ncccc1F [Example 528, (R)-1-(6-(3-(dimethylamino)azetidin-1-yl)pyridin-3-yl)-7-(2-(((3-fluoropyridin-2-yl)oxy)methyl)pyrrolidin-1-yl)-6-methyl-4-oxo-1,4-dihydroquinoline-3-carboxylic acid] | 
12 |  | ≤ 1000 nM | CN1CC2(C1)CN(c1ccc(-n3cc(C(=O)O)c(=O)c4cc(Cl)c(N5CCC[C@@H]5COc5ncccc5Cl)cc43)cn1)C2 [Example 520, (R)-6-chloro-7-(2-(((3-chloropyridin-2-yl)oxy)methyl)pyrrolidin-1-yl)-1-(6-(6-methyl-2,6-diazaspiro[3.3]heptan-2-yl)pyridin-3-yl)-4-oxo-1,4-dihydroquinoline-3-carboxylic acid] | 
13 |  | ≤ 1000 nM | N#Cc1cc2c(=O)c(C(=O)O)cn(-c3ccc(N)nc3)c2cc1N1CCC[C@@H]1COc1ncccc1Cl [Example 513, (R)-1-(6-aminopyridin-3-yl)-7-(2-(((3-chloropyridin-2-yl)oxy)methyl)pyrrolidin-1-yl)-6-cyano-4-oxo-1,4-dihydroquinoline-3-carboxylic acid] | 
14 | ≤ 1000 nM |  | O=C(O)c1cn(-c2ccc(F)cc2)c2cc(N3CCC[C@@H]3COc3ccccn3)c(F)cc2c1=O [Compound 151, (R)-6-fluoro-1-(4-fluorophenyl)-4-oxo-7-(2-((pyridin-2-yloxy)methyl)pyrrolidin-1-yl)-1,4-dihydro-quinoline-3-carboxylic acid] | 
